In patent US20050101668A1, “Aminotetralin derivatives as a medicament for the treatment and prevention of myocardial ischemic conditions” (Chiesi Farmaceutici S.p.A., priority 2003, published 2005):

Key:
[1] = system: isolated perfused rat heart; experiment: Isolated perfused rat heart, low flow ischemia/reperfusion: heart mechanics (LVEDP, LVDevP, CPP); details: antagonist alone 1 μM, pre-ischemic period, mean ± S.E.M.
Procedure: (§1) In brief, the rats were anaesthetized with sodium pentobarbital (60 mg/kg) given by intraperitoneal injection. The chest were opened, and the heart was rapidly excised, and placed in cold (4° C.) heparinized (20 units/ml) Krebs Henseleit solution. […] Coronary perfusion pressure (CPP), left ventricular pressure (LVP) and left ventricular developed pressure (LVDevP; peak left ventricular systolic pressure minus LVEDP) were measured.
(§2) After equilibration of 15 min, hearts were paced at 300 beats/min with an electrical stimulator via two silver electrodes attached to the right atrium and an additional 30 min of perfusion was carried out (pre-ischemic period). Ischemia was induced by reducing the flow rate from 15 ml/min to 1 ml/min for 20 min (ischemic period). A normal flow rate (15 ml/min) was then restored and the perfusion was continued for another 30 min (reperfusion period).

[2] = system: isolated perfused rat heart; experiment: Creatine kinase (CK) and lactate dehydrogenase (LDH) activities in heart perfusates; details: antagonist alone 1 μM; mU/min/g w.w. vs time 20 to 50 min; mean ± S.E.M.
Procedure: as §1, §2
The perfusate, eluted from the heart during pre-ischemic and reperfusion periods, was collected in an ice-cooled beaker as 2.5-min samples collection. Each sample was used for the determination of CK and LDH activities by means of a spectrophotometrical method.

## COC(=O)[C@H]1[C@H]2C[C@H]3c4[nH]c5ccccc5c4CCN3C[C@H]2CC[C@@H]1O [Rauwolscine, rauwolscine]
[1]; mm Hg vs time 0 to 50 min
  AUC related to LVEDP: 505 ± 64
[1]; mm Hg vs time 20 to 50 min
  AUC related to CPP: 1680 ± 98
  AUC related to LVDevP: 912 ± 64
[2]
  AUC related to CK: 5584 ± 297
  AUC related to LDH: 12988 ± 522
